What was measured:
[1] = system: H3K27 acetylation at CREB-bound genes; experiment: Whole-genomic H3K27 histone acetylation analysis in KG-1 cells; format: cell-based; conditions: 5 μM
[2] = Plasma pharmacokinetics in NSG mice, quantitative mass spectrometry; format: in vivo; conditions: mouse, ip, 20 mg/kg/day, 20 mg/kg/day IP
Description: FIG. 10, panels A-D, illustrates the non-toxicity and pharmacodynamics of compound Compound A. Panel A) Human AML patient sample cells (#186) were injected (2×10^6 cells) into 8 NSG mice, and mice were then treated with intravenous 0.1% DMSO or 2.3 mg/kg Compound A IV once daily. […] Compound A plasma concentration was measured by quantitative mass spectrometry. […] Panel C). […] Numbers shown are averages of values from 3 mice SE.
To assess the potential in vivo toxicities of Compound A, four groups of five mice not injected with AML cells were treated with 2.3 mg/kg Compound A intravenously daily, or 20, 40 or 60 mg/kg intraperitoneally (IP) daily for 28 days.

[3] = system: Bcl-2, Mcl-1 expression in KG-1 cells; experiment: Western blot of anti-apoptotic proteins in KG-1 cells; format: cell-based
Description: (§1) Cells were lysed in RIPA buffer (Sigma), and the protein concentrations were determined by BCA assay (Thermo Scientific Pierce). Lysates were solubilized in 6×SDS PAGE buffer and […] of protein was loaded into 6-15% SDS PAGE gels, pheresed, and then transferred onto […] PVDF membrane (Millipore). Primary antibodies were applied at a dilution of 1:1000. Anti-Bcl-2, -Bax, -Mcl-1, -Bcl-XL, -Cyclin A and -Cyclin D1 antibodies were purchased from Cell Signaling Technologies. Anti-total acetylated histone and -ac-H3K27 were purchased from Santa Cruz Biotechnologies. Anti-actin and -CREB antibodies were purchased from upstate. Secondary antibodies were used at a 1:2500 dilution and purchased from Thermo Scientific/Pierce. WesternBright ECL was used for image acquisition on Image Lab software (Bio-Rad).
The balance between pro- and anti-apoptotic protein expression contributes to cell fate decisions. CREB regulates the expression of several anti-apoptotic proteins, including Bcl-2, Bcl-XL and Mcl-1. Bcl-2 expression in particular is known to mediate resistance to chemotherapy and influence clinical outcome in a number of cancer types, including AML. The ability of Compound A to cause apoptosis by disrupting the CREB-driven expression of these anti-apoptotic proteins was examined. In HL-60 cells treated with Compound A, apoptosis is induced in a dose- and time-dependent manner. […]

CREB phosphorylation = CREB phosphorylation in HL-60 cells; format: cell-based, human
Text: FIG. 12, panels A-D, illustrates the results of CyTOF Phenotyping and Compound A Combination Studies. […] Viability for Compound A treatment alone was 87.4±7.3%, versus 55.3±3.4% and 49.5±2.3% when combined with ERK and RSK inhibitors, respectively (* indicates p<0.05 compared to cells treated with Compound A alone). Panel D) Compound A inhibits CREB phosphorylation in the presence of serum. HL-60 cells were serum-starved then stimulated with serum.
as §1

KG-1 cells = experiment: Cell cycle analysis of synchronized KG-1 cells by flow cytometry; format: cell-based
Description: KG-1 cells were synchronized at prometaphase using a modified thymidine plus nocodazole block (Whitfield et al. identification of genes periodically expressed in the human cell cycle and their expression in tumors. Mol Biol Cell. 2002; 13(6):1977-2000). Briefly, KG-1 cells were treated with 2 mM thymidine for 30 h, washed with PBS and released from G1/S block in fresh media for 4 h. The cells were incubated with 300 nM nocodazole (Sigma) for 13 h. Compound A or DMSO was added 3 hours before release. The synchronized cells were washed with PBS and released from the mitotic block in fresh media containing Compound A or DMSO. To analyze DNA content by flow cytometry, cells were harvested, fixed in 70% ice-cold ethanol for at least 1 hour at −20° C., and then incubated in propidium iodide (PI) staining buffer (PBS containing RNase A (50 μg/ml), 0.1% sodium citrate, and PI ([…])) for 30 minutes at RT. Cells were analyzed on a FACS Calibur flow cytoneter (BD Biosciences). Cell-cycle distribution was determined using FlowJo software (TreeStar).
CREB regulates the cell cycle by virtue of transcriptionally regulating the expression of key cell cycle genes. Thus, the effect of Compound A on this aspect of cell function was also examined. […]

Which “CREB-bound genes with decreased H3K27 histone acetylation” value [1] does the source give for `N#Cc1ccc(NC(=O)c2cc3ccccc3cc2O)cc1` [Compound A, N-(4-cyanophenyl)-3-hydroxy-2-naphthamide] here?
Its value is “Greater than 95%”.

What about the half-life [2] of the same compound?
The half-life was 4.3 h.

And the Bcl-2 expression [3]?
Its Bcl-2 expression is “decreased Bcl-2 expression”.

And the Mcl-1 expression [3]?
Its Mcl-1 expression is “pronounced decrease in Mcl-1”.

And the “CREB phosphorylation in the presence of serum” value (CREB phosphorylation; HL-60 cells serum-starved then stimulated with serum, 48 hours)?
The value was “CREB phosphorylation decreases”.

And the CREB phosphorylation (CREB phosphorylation; HL-60 cells, 24 hours)?
The CREB phosphorylation was “increase in CREB phosphorylation”.

And the “% cells in G1-phase” value (KG-1 cells; 4 hours following release)?
Its value is 66.20±1.83%.

What about the “% cells in G1-phase” value (KG-1 cells; 8 hours following release) of the same compound?
The value was 55.41±0.59%.
